Experimental data as given in US6333447A, “Transgenic model of heart failure” (The General Hospital Corporation, priority 1996, dated 2001).

Tests used:
rats = details: infusion for several weeks; cited from earlier work
mice = details: chronic administration; cited from earlier work
[1] = system: transgenic (Gsα overexpressing) and wild-type control mice; test: Left ventricular contractility (LV dP/dt) by Millar micromanometer with heart rate held constant by pacing
[2] = system: transgenic (Gsα overexpressing) and control mice; test: M-mode echocardiography and ECG during graded intravenous infusion of sympathomimetic amines in anesthetized mice
[3] = TG mice, isoproterenol infusion 0.005 μg/kg/min
[4] = TG mice, isoproterenol infusion 0.01 μg/kg/min
[5] = TG mice, isoproterenol infusion 0.02 μg/kg/min
[6] = TG mice, isoproterenol infusion 0.02 μg/kg/min, listed as Isoproterenol
[7] = control mice, isoproterenol infusion 0.01 μg/kg/min
[8] = control mice, isoproterenol infusion 0.02 μg/kg/min
[9] = control mice, isoproterenol infusion 0.02 μg/kg/min, listed as Isoproterenol
[10] = control mice, isoproterenol infusion 0.04 μg/kg/min
[11] = TG mice, norepinephrine infusion 0.05 μg/kg/min
[12] = TG mice, norepinephrine infusion 0.1 μg/kg/min
[13] = TG mice, norepinephrine infusion 0.2 μg/kg/min
[14] = TG mice, norepinephrine infusion 0.2 μg/kg/min, listed as Norepinephrine
[15] = control mice, norepinephrine infusion 0.1 μg/kg/min
[16] = control mice, norepinephrine infusion 0.2 μg/kg/min
[17] = control mice, norepinephrine infusion 0.2 μg/kg/min, listed as Norepinephrine
[18] = control mice, norepinephrine infusion 0.4 μg/kg/min

SMILES: CC(C)NCC(O)c1ccc(O)c(O)c1 (centres unmarked) [isoproterenol]
- Myocardial pathology (rats): myocardial hypertrophy with cellular necrosis and replacement fibrosis
- Hypertrophic response (mice): enhanced hypertrophic responses
- Increase of left ventricular contractility (LV dP/dt) from baseline ([1]; transgenic mice, heart rate held constant (9.0-0.6 Hz), isoproterenol 0.02 μg/kg/min): 33±2%
- Increase of left ventricular contractility (LV dP/dt) from baseline ([1]; wild-type control mice, heart rate held constant (8.0±0.0 Hz), isoproterenol 0.02 μg/kg/min, baseline 6923±281 mm Hg/sec): 13±2%
- Ejection Fraction [2, 3]: 80.6 ± 3.2%
- Fractional Shortening [2, 3]: 42.5 ± 3.2%
- Heart Rate [2, 3]: 369 ± 12 beats/min
- LVID end-diastole [2, 3]: 3.5 ± 0.3 mm
- LVID end-systole [2, 3]: 2.0 ± 0.1 mm
- Ejection Fraction [2, 4]: 89.5 ± 2.6%
- Fractional Shortening [2, 4]: 53.5 ± 3.5%
- Heart Rate [2, 4]: 389 ± 10 beats/min
- LVID end-diastole [2, 4]: 3.4 ± 0.2 mm
- LVID end-systole [2, 4]: 1.6 ± 0.1 mm
- Ejection Fraction [2, 5]: 96±1%
- Fractional Shortening [2, 5]: 68±4%
- Heart Rate [2, 5]: 433 beats/min
- LVID end-diastole [2, 5]: 3.1 mm
- LVID end-systole [2, 5]: 1.0 ± 0.1 mm
- Ejection Fraction [2, 6]: 96.3 ± 1.3%
- Fractional Shortening [2, 6]: 67.9 ± 4.2%
- Ejection Fraction [2, 7]: 76.7 ± 1.2%
- Fractional Shortening [2, 7]: 38.5 ± 1.1%
- Heart Rate [2, 7]: 213 ± 16 beats/min
- LVID end-diastole [2, 7]: 4.0 ± 0.1 mm
- LVID end-systole [2, 7]: 2.4 ± 0.0 mm
- Ejection Fraction [2, 8]: 86±3%
- Fractional Shortening [2, 8]: 48±3%
- Heart Rate [2, 8]: 236 ± 8 beats/min
- LVID end-diastole [2, 8]: 3.9 ± 0.1 mm
- LVID end-systole [2, 8]: 2.0 mm
- Ejection Fraction [2, 9]: 85.8%
- Fractional Shortening [2, 9]: 48.3%
- Ejection Fraction [2, 10]: 94.1 ± 2.0%
- Fractional Shortening [2, 10]: 62.8 ± 5.7%
- Heart Rate [2, 10]: 289 beats/min
- LVID end-diastole [2, 10]: 3.6 ± 0.1 mm
- LVID end-systole [2, 10]: 1.3 ± 0.2 mm
- Left ventricular end-diastolic dimensions ([2]; increasing doses of isoproterenol, both groups): decreased dose-dependently

SMILES: NC[C@H](O)c1ccc(O)c(O)c1 [norepinephrine]
- Increase of left ventricular contractility (LV dP/dt) from baseline ([1]; transgenic mice, heart rate held constant (8.3±1.2 Hz), norepinephrine 0.1 μg/kg/min): 65±8%
- Increase of left ventricular contractility (LV dP/dt) from baseline ([1]; wild-type control mice, heart rate held constant (6.0±0.0 Hz), norepinephrine 0.1 μg/kg/min, baseline 7292±461 mm Hg/sec): 28±4%
- Ejection Fraction [2, 11]: 79.8 ± 4.0%
- Fractional Shortening [2, 11]: 41.9 ± 3.9%
- Heart Rate [2, 11]: 320 ± 13 beats/min
- LVID end-diastole [2, 11]: 3.6 ± 0.1 mm
- LVID end-systole [2, 11]: 2.1 ± 0.1 mm
- Ejection Fraction [2, 12]: 88.3 ± 3.8%
- Fractional Shortening [2, 12]: 52.2 ± 4.8%
- Heart Rate [2, 12]: 322 ± 16 beats/min
- LVID end-diastole [2, 12]: 3.6 ± 0.2 mm
- LVID end-systole [2, 12]: 1.7 ± 0.2 mm
- Ejection Fraction [2, 13]: 93±2%
- Fractional Shortening [2, 13]: 59±4%
- Heart Rate [2, 13]: 341 ± 18 beats/min
- LVID end-diastole [2, 13]: 3.6 mm
- LVID end-systole [2, 13]: 1.5 ± 0.2 mm
- Ejection Fraction [2, 14]: 92.8 ± 2.1%
- Fractional Shortening [2, 14]: 59.4 ± 4.1%
- Ejection Fraction [2, 15]: 78.3 ± 0.1%
- Fractional Shortening [2, 15]: 39.9 ± 0.5%
- Heart Rate [2, 15]: 241 ± 27 beats/min
- LVID end-diastole [2, 15]: 4.0 ± 0.1 mm
- LVID end-systole [2, 15]: 2.4 ± 0.1 mm
- Ejection Fraction [2, 16]: 85±3%
- Fractional Shortening [2, 16]: 47±3%
- Heart Rate [2, 16]: 252 ± 33 beats/min
- LVID end-diastole [2, 16]: 4.1 ± 0.1 mm
- LVID end-systole [2, 16]: 2.2 mm
- Ejection Fraction [2, 17]: 84.8%
- Fractional Shortening [2, 17]: 47.0%
- Ejection Fraction [2, 18]: 92.3 ± 2.0%
- Fractional Shortening [2, 18]: 58.2 ± 3.9%
- Heart Rate [2, 18]: 272 ± 44 beats/min
- LVID end-diastole [2, 18]: 4.0 ± 0.1 mm
- LVID end-systole [2, 18]: 1.7 ± 0.2 mm
- Chronotropic effect ([2]; norepinephrine infusion, either group (control or transgenic)): no significant chronotropic effect
- Effect on left ventricular end-diastolic dimensions ([2]; norepinephrine infusion, transgenic or control group): no effect
